From ChEMBL document CHEMBL5500347, “An update on antibacterial AlkylGuanidino Ureas: Design of new derivatives, synergism with colistin and data analysis of the whole library” (2024)
≈ marks a conversion by molar mass, not a printed value. Calls of active or inactive are those of the source. The calls are words filed in the database; no cut-off is given here.

How the values were obtained:
[1] = system: Bacillus subtilis; experiment: Antibacterial activity against Bacillus subtilis ATCC 6633 incubated for 18 to 24 hrs by CLSI based microdilution broth method; format: functional; conditions: time 18-24 hrs
[2] = system: Enterococcus faecalis; experiment: Antibacterial activity against Enterococcus faecalis ATCC 19433 incubated for 18 to 24 hrs by CLSI based microdilution broth method; format: functional; conditions: time 18-24 hrs
[3] = system: Streptococcus pyogenes; experiment: Antibacterial activity against Streptococcus pyogenes ATCC 12344 incubated for 18 to 24 hrs by CLSI based microdilution broth method; format: functional; conditions: time 18-24 hrs
[4] = system: Staphylococcus aureus; experiment: Antibacterial activity against Staphylococcus aureus ATCC 25923 incubated for 18 to 24 hrs by CLSI based microdilution broth method; format: functional; conditions: time 18-24 hrs
[5] = system: Escherichia coli; experiment: Antibacterial activity against Escherichia coli CCUGT at 256 ug/ml incubated for 18 to 24 hrs by CLSI based microdilution broth method; format: functional, organism-based; conditions: dose 256.0 µg/ml, time 18-24 hrs
[6] = system: Klebsiella pneumoniae; experiment: Antibacterial activity against Klebsiella pneumoniae ATCC 13833 at 256 ug/ml incubated for 18 to 24 hrs by CLSI based microdilution broth method; format: functional, organism-based; conditions: dose 256.0 µg/ml, time 18-24 hrs
[7] = system: Acinetobacter baumannii; experiment: Antibacterial activity against Acinetobacter baumannii ATCC 17978 at 256 ug/ml incubated for 18 to 24 hrs by CLSI based microdilution broth method; format: functional, organism-based; conditions: dose 256.0 µg/ml, time 18-24 hrs
[8] = system: Pseudomonas aeruginosa; experiment: Antibacterial activity against Pseudomonas aeruginosa ATCC 27853 at 256 ug/ml incubated for 18 to 24 hrs by CLSI based microdilution broth method; format: functional, organism-based; conditions: dose 256.0 µg/ml, time 18-24 hrs
[9] = system: Escherichia coli; experiment: Antibacterial activity against Escherichia coli CCUGT incubated for 18 to 24 hrs by CLSI based microdilution broth method; format: functional; conditions: time 18-24 hrs
[10] = system: Klebsiella pneumoniae; experiment: Antibacterial activity against Klebsiella pneumoniae ATCC 13833 incubated for 18 to 24 hrs by CLSI based microdilution broth method; format: functional; conditions: time 18-24 hrs
[11] = system: Acinetobacter baumannii; experiment: Antibacterial activity against Acinetobacter baumannii ATCC 17978 incubated for 18 to 24 hrs by CLSI based microdilution broth method; format: functional; conditions: time 18-24 hrs; for MIC: Acinetobacter baumannii, ATCC 17978
[12] = system: Pseudomonas aeruginosa; experiment: Antibacterial activity against Pseudomonas aeruginosa ATCC 27853 incubated for 18 to 24 hrs by CLSI based microdilution broth method; format: functional; conditions: time 18-24 hrs; for MIC: Pseudomonas aeruginosa, ATCC 27853
[13] = system: Escherichia coli; experiment: Synergistic antibacterial activity against Escherichia coli CCUGT incubated for 18 to 24 hrs in presence of colistin by CLSI based microdilution broth method; format: functional; conditions: time 18-24 hrs
[14] = system: Escherichia coli; experiment: Synergistic antibacterial activity against Escherichia coli CCUGT assessed as potentiation fold by measuring MIC to MAC ratio incubated for 18 to 24 hrs in presence of colistin by CLSI based microdilution broth method; format: functional; conditions: time 18-24 hrs
[15] = system: Klebsiella pneumoniae; experiment: Synergistic antibacterial activity against Klebsiella pneumoniae ATCC 13833 incubated for 18 to 24 hrs in presence of colistin by CLSI based microdilution broth method; format: functional; conditions: time 18-24 hrs
[16] = system: Klebsiella pneumoniae; experiment: Synergistic antibacterial activity against Klebsiella pneumoniae ATCC 13833 assessed as potentiation fold by measuring MIC to MAC ratio incubated for 18 to 24 hrs in presence of colistin by CLSI based microdilution broth method; format: functional; conditions: time 18-24 hrs
[17] = system: Pseudomonas aeruginosa; experiment: Synergistic antibacterial activity against Pseudomonas aeruginosa ATCC 27853 incubated for 18 to 24 hrs in presence of colistin by CLSI based microdilution broth method; format: functional; conditions: time 18-24 hrs
[18] = system: Pseudomonas aeruginosa; experiment: Synergistic antibacterial activity against Pseudomonas aeruginosa ATCC 27853 assessed as potentiation fold by measuring MIC to MAC ratio incubated for 18 to 24 hrs in presence of colistin by CLSI based microdilution broth method; format: functional; conditions: time 18-24 hrs
[19] = system: Acinetobacter baumannii; experiment: Synergistic antibacterial activity against Acinetobacter baumannii ATCC 17978 incubated for 18 to 24 hrs in presence of colistin by CLSI based microdilution broth method; format: functional; conditions: time 18-24 hrs
[20] = system: Acinetobacter baumannii; experiment: Synergistic antibacterial activity against Acinetobacter baumannii ATCC 17978 assessed as potentiation fold by measuring MIC to MAC ratio incubated for 18 to 24 hrs in presence of colistin by CLSI based microdilution broth method; format: functional; conditions: time 18-24 hrs
[21] = system: Acinetobacter baumannii; experiment: Antibacterial activity against Acinetobacter baumannii N50 incubated for 18 to 24 hrs by CLSI based microdilution broth method; format: functional; conditions: time 18-24 hrs
[22] = system: Acinetobacter baumannii; experiment: Synergistic antibacterial activity against Acinetobacter baumannii N50 incubated for 18 to 24 hrs in presence of colistin by CLSI based microdilution broth method; format: functional; conditions: time 18-24 hrs
[23] = system: Acinetobacter baumannii; experiment: Synergistic antibacterial activity against Acinetobacter baumannii N50 assessed as potentiation fold by measuring MIC to MAC ratio incubated for 18 to 24 hrs in presence of colistin by CLSI based microdilution broth method; format: functional; conditions: time 18-24 hrs
[24] = Escherichia coli, CCUGT, read-out: MIC
[25] = Klebsiella pneumoniae, ATCC 13833, read-out: MIC

Row | SMILES | MIC [1] | MIC [2] | MIC [3] | MIC [4] | Activity [5] | Activity [6] | Activity [7] | Activity [8] | MAC [13] | Ratio [14] | MAC [17] | MAC [19] | Ratio [20] | MIC [21] | MAC [22] | Ratio [23] | MIC [9, 24] | MIC [10, 25] | MIC [11] | MIC [12] | further results
1 | N=C(NCCCCCCNC(N)=O)NCC1CC1.O=C(O)C(F)(F)F | 128 µg/mL | 128 µg/mL | 128 µg/mL | 128 µg/mL | inactive | inactive | inactive | inactive |  |  |  |  |  |  |  |  |  |  |  |  | 
2 | CC(C)NC(=N)NCCCCCCCCNC(N)=O.O=C(O)C(F)(F)F | 64 µg/mL | 128 µg/mL | 64 µg/mL | 64 µg/mL | inactive | inactive | inactive | inactive |  |  |  |  |  |  |  |  |  |  |  |  | 
3 | N=C(N)NCCCCCCCCN(CCCCCCCCN)C(=O)N(CCCCCCCCN)CCCCCCCCNC(=N)NCC1CC1 |  |  |  |  |  |  |  |  | 0.5 µg/mL | 64 | 8 µg/mL | 8 µg/mL | 8 | 32 µg/mL (≈ 45.3 µM) | 4 µg/mL | 8 |  |  |  |  | MIC [9]: 32 µg/mL (≈ 45.3 µM); MIC [10]: 64 µg/mL (≈ 90.5 µM); MAC [11]: 64 µg/mL; MAC [12]: 128 µg/mL; MAC [15]: 32 µg/mL; Ratio [16]: 2; Ratio [18]: 16
4 | N=C(NCCCCCCCCN(CCCCCCCCNC(=N)NCC1CC1)C(=O)N(CCCCCCNC(=N)NCC1CC1)CCCCCCNC(=N)NCC1CC1)NCC1CC1 |  |  |  |  |  |  |  |  |  |  | 128 µg/mL | 4 µg/mL | 16 | 64 µg/mL (≈ 71.3 µM) | 2 µg/mL | 32 | 4 µg/mL (≈ 4.46 µM) | 4 µg/mL (≈ 4.46 µM) | 64 µg/mL (≈ 71.3 µM) | 128 µg/mL (≈ 143 µM) | Ratio [18]: 1
5 | CCNC(=N)NCCCCCCCCNC(N)=O.O=C(O)C(F)(F)F | 64 µg/mL | 128 µg/mL | 64 µg/mL | 32 µg/mL | inactive | inactive | inactive | inactive |  |  |  |  |  |  |  |  |  |  |  |  | 
6 | N=C(N)NCCCCCCN(CCCCCCNC(=N)NCC1CC1)C(=O)N(CCCCCCNC(=N)N)CCCCCCNC(=N)NCC1CC1 |  |  |  |  |  |  |  |  | 1 µg/mL | 16 | 8 µg/mL | 1 µg/mL | 128 | > 256 µg/mL | >256 µg/mL | 1 | 16 µg/mL (≈ 21.8 µM) | 32 µg/mL (≈ 43.6 µM) | 128 µg/mL (≈ 175 µM) | 256 µg/mL (≈ 349 µM) | MAC [15]: 16 µg/mL; Ratio [16]: 2; Ratio [18]: 32
7 | CCNC(=N)NCCCCCCN(CCCCCCNC(=N)NCC1CC1)C(=O)N(CCCCCCNC(=N)NCC)CCCCCCNC(=N)NCC1CC1 |  |  |  |  |  |  |  |  | 8 µg/mL | 1 |  | 4 µg/mL | 16 |  |  |  | 8 µg/mL (≈ 10.1 µM) | 16 µg/mL (≈ 20.3 µM) | 64 µg/mL (≈ 81.1 µM) | 128 µg/mL (≈ 162 µM) | 
8 | CCNC(=N)NCCCCCCCCN(CCCCCCCCNC(=N)NCC)C(=O)N(CCCCCCCCNC(=N)NCC)CCCCCCCCNC(=N)NCC |  |  |  |  |  |  |  |  |  |  |  | 0.5 µg/mL | 32 | 64 µg/mL (≈ 75.4 µM) | 0.25 µg/mL | 256 | 2 µg/mL (≈ 2.35 µM) | 4 µg/mL (≈ 4.71 µM) | 16 µg/mL (≈ 18.8 µM) | 64 µg/mL (≈ 75.4 µM) | 
